Biological target: SARS-CoV-2 M^PRO (Severe acute respiratory syndrome coronavirus 2, UniProt P0DTD1)
Assay: biochemical
Assay type: biochemical
Conditions: In vitro potency data; 30 min pre-incubation, 25 nM M^pro, 25 µM substrate; read-out: IC50

SMILES | IC50
CC(C)(C)c1ccc(N(C(=O)CCl)C(C(=O)NC2CCCCC2)c2cccnc2)cc1 (stereo not drawn) [INSCoV-110A, 2-(4-tert-butyl-N-(2-chloroacetyl)anilino)-N-cyclohexyl-2-(3-pyridyl)acetamide] | 1140 nM
CC(C)(C)c1ccc(N(C(=O)C=O)C(C(=O)NC2CCCCC2)c2cccnc2)cc1 (stereo not drawn) [INSCoV-110D] | > 50000 nM
O=C(NC1CCCCC1)C(c1cncnc1)N(C(=O)CCl)c1ccc(-c2cnco2)cc1 (stereo not drawn) [INSCoV-501A, 2-Chloro-N-(2-(Cyclohexylamino)-2-oxo-1-(Pyrimidin-5-yl)Ethyl)-N-(4-(Oxazol-5-yl)Phenyl)Acetamide] | 290 nM
O=C(NC1CCS(=O)(=O)CC1)C(c1cncnc1)N(C(=O)CCl)c1ccc(-c2cnco2)cc1 (stereo not drawn) [INSCoV-501B, 2-Chloro-N-(2-((1,1-Dioxidotetrahydro-2H-Thiopyran-4-yl)Amino)-2-Oxo-1-(Pyrimidin-5-yl)Ethyl)-N-(4-(Oxazol-5-yl)Phenyl)Acetamide] | 600 nM
Cc1ccc(S(=O)(=O)CNC(=O)C(c2cncnc2)N(C(=O)CCl)c2ccc(-c3cnco3)cc2)cc1 (stereo not drawn) [INSCoV-501D] | 2510 nM
O=C(NCCc1ccccc1)C(c1cncnc1)N(C(=O)CCl)c1ccc(-c2cnco2)cc1 (stereo not drawn) [INSCoV-501E] | 600 nM
Cc1cc(-c2cnco2)ccc1N(C(=O)CCl)C(C(=O)NC1CCCCC1)c1cncnc1 (stereo not drawn) [INSCoV-501G] | 260 nM
CCS(=O)(=O)N1CCC(NC(=O)C(c2cncnc2)N(C(=O)CCl)c2ccc(-c3cnco3)cc2)CC1 (stereo not drawn) [INSCoV-501H(1)] | 630 nM
O=C(NC1CCN(S(=O)(=O)C2CC2)CC1)C(c1cncnc1)N(C(=O)CCl)c1ccc(-c2cnco2)cc1 (stereo not drawn) [INSCoV-501H] | 720 nM
O=C(NC1CCC(F)(F)CC1)C(c1cncnc1)N(C(=O)CCl)c1ccc(-c2cnco2)cc1 (stereo not drawn) [INSCoV-501I, 2-Chloro-N-(2-((4,4-difluorocyclohexyl)amino)-2-oxo-1-(pyrimidin-5-yl)ethyl)-N-(4-(oxazol-5-yl)phenyl)acetamide] | 390 nM
O=C(NC1CCCCC1)C(c1cnccn1)N(C(=O)CCl)c1ccc(-c2cnco2)cc1 (stereo not drawn) [INSCoV-501L] | 400 nM
O=C(NC1CCS(=O)(=O)CC1)C(c1cnccn1)N(C(=O)CCl)c1ccc(-c2cnco2)cc1 (stereo not drawn) [INSCoV-501M, 2-Chloro-N-(2-((1,1-Dioxidotetrahydro-2H-Thiopyran-4-yl)Amino)-2-Oxo-1-(Pyrazin-2-yl)Ethyl)-N-(4-(Oxazol-5-yl)Phenyl)Acetamide] | 450 nM
Cc1ccc(S(=O)(=O)CNC(=O)C(c2cnccn2)N(C(=O)CCl)c2ccc(-c3cnco3)cc2)cc1 (stereo not drawn) [INSCoV-501O, 2-Chloro-N-(4-(Oxazol-5-yl)Phenyl)-N-(2-Oxo-1-(Pyrazin-2-yl)-2-((Tosylmethyl)Amino)Ethyl)Acetamide] | 1500 nM
O=C(NCCc1ccccc1)C(c1cnccn1)N(C(=O)CCl)c1ccc(-c2cnco2)cc1 (stereo not drawn) [INSCoV-501P, 2-Chloro-N-(4-(Oxazol-5-vl)Phenyl)-N-(2-Oxo-2-(Phenethylamino)-1-(Pyrazin-2-yl)Ethyl)Acetamide] | 560 nM
CCS(=O)(=O)N1CCC(NC(=O)C(c2cnccn2)N(C(=O)CCl)c2ccc(-c3cnco3)cc2)CC1 (stereo not drawn) [INSCoV-501R(1), 2-Chloro-N-(2-((1-(Ethylsulfonyl)Piperidin-4-yl)Amino)-2-Oxo-1-(Pyrazin-2-yl)Ethyl)-N-(4-(Oxazol-5-yl)Phenyl)Acetamide] | 570 nM
O=C(NC1CCN(S(=O)(=O)C2CC2)CC1)C(c1cnccn1)N(C(=O)CCl)c1ccc(-c2cnco2)cc1 (stereo not drawn) [INSCoV-501R, 2-Chloro-N-(2-((1-(Cyclopropylsulfonyl)Piperidin-4-yl)Amino)-2-Oxo-1-(Pyrazin-2-yl)Ethyl)-N-(4-(Oxazol-5-yl)Phenyl)Acetamide] | 480 nM
O=C(NC1CCC(F)(F)CC1)C(c1cnccn1)N(C(=O)CCl)c1ccc(-c2cnco2)cc1 (stereo not drawn) [INSCoV-501S, 2-Chloro-N-(2-((4,4-Difluorocyclohexyl)Amino)-2-Oxo-1-(Pyrazin-2-yl)Ethyl)-N-(4-(Oxazol-5-yl)Phenyl)Acetamide] | 240 nM
O=C(NC1CCCCC1)C(c1cccnc1)N(C(=O)CCl)c1ccc(-c2cnco2)cc1 (stereo not drawn) [INSCoV-501] | 680 nM
Cc1ccc(CN(C(=O)CCl)C(C(=O)NC2CCCCC2)c2cccnc2)cc1 (stereo not drawn) [INSCoV-502] | 4820 nM
Cc1ccccc1CCN(C(=O)CCl)C(C(=O)NC1CCCCC1)c1cccnc1 (stereo not drawn) [INSCoV-503A] | 2630 nM
Cc1cccc(CCN(C(=O)CCl)C(C(=O)NC2CCCCC2)c2cccnc2)c1 (stereo not drawn) [INSCoV-503B] | 1000 nM
Cc1ccc(CCN(C(=O)CCl)C(C(=O)NC2CCCCC2)c2cccnc2)cc1 (stereo not drawn) [INSCoV-503C] | 1380 nM
O=C(NC1CCCCC1)C(c1cccnc1)N(CCc1ccccc1Cl)C(=O)CCl (stereo not drawn) [INSCoV-503D] | 2650 nM
O=C(NC1CCCCC1)C(c1cccnc1)N(CCc1cccc(Cl)c1)C(=O)CCl (stereo not drawn) [INSCoV-503E] | 660 nM
O=C(NC1CCCCC1)C(c1cccnc1)N(CCc1ccc(Cl)cc1)C(=O)CCl (stereo not drawn) [INSCoV-503F] | 940 nM
O=C(NC1CCCCC1)C(c1cccnc1)N(CCc1ccccc1F)C(=O)CCl (stereo not drawn) [INSCoV-503G] | 2300 nM

SMILES | IC50
O=C(NC1CCCCC1)C(c1cccnc1)N(CCc1ccccc1)C(=O)CCl (stereo not drawn) [INSCoV-503] | 980 nM
O=C(NC1CCCCC1)C(c1cccnc1)N(Cc1ccc(F)cc1)C(=O)CCl (stereo not drawn) [INSCoV-504] | 16300 nM
COc1ccccc1CN(C(=O)CCl)C(C(=O)NC1CCCCC1)c1cccnc1 (stereo not drawn) [INSCoV-505] | 8650 nM
O=C(NC1CCCCC1)C(c1cccnc1)N(C(=O)CCl)c1ccc(Br)cc1F (stereo not drawn) [INSCoV-507] | 2130 nM
O=C(NC1CCCCC1)C(c1cccnc1)N(CCc1c[nH]c2ccncc12)C(=O)CCl (stereo not drawn) [INSCoV-516] | 1180 nM
N#Cc1cc(OC(F)(F)F)ccc1N(C(=O)CCl)[C@@H](C(=O)NC1CCCCC1)c1cccnc1 [INSCoV-517(1)] | 80 nM
N#Cc1cc(OC(F)(F)F)ccc1N(C(=O)CCl)[C@H](C(=O)NC1CCCCC1)c1cccnc1 [INSCoV-517(2)] | 1940 nM
N#Cc1cc(OC(F)(F)F)ccc1N(C(=O)CCl)C(C(=O)NC1CCC(F)(F)CC1)c1cnccn1 (stereo not drawn) [INSCoV-517B] | 170 nM
O=C(NC1CCCCC1)C(c1cccnc1)N(C(=O)CCl)c1ccc(N2CCCC2)cc1 (stereo not drawn) [INSCoV-523] | 980 nM
Cc1ccc(S(=O)(=O)C(C)NC(=O)C(c2cccnc2)N(C(=O)CCl)c2ccc(C(C)(C)C)cc2)cc1 (stereo not drawn) [INSCoV-531] | 12700 nM
CC(C)(C)NC(=O)C(c1cccnc1)N(C(=O)CCl)c1ccc(C(C)(C)C)cc1 (stereo not drawn) [INSCoV-534, N-(Tert-Butyl)-2-(N-(4-(Tert-Butyl)Phenyl)-2-Chloroacetamido)-2-(Pyridin-3-yl)Acetamide] | 1280 nM
CC(C)(C)c1ccc(N(C(=O)CCl)C(C(=O)NC2CCCCC2)c2cncc(O)c2)cc1 (stereo not drawn) [INSCoV-535, N-(4-(Tert-Butyl)Phenyl)-2-Chloro-N-(2-(Cyclohexylamino)-1-(5-Hydroxypyridin-3-yl)-2-Oxoethyl)Acetamide] | 1040 nM
CC(C)(C)c1ccc(N(C(=O)CCl)C(C(=O)NC2CCCCC2)c2cncnc2)cc1 (stereo not drawn) [INSCoV-536, N-(4-(Tert-Butyl)Phenyl)-2-Chloro-N-(2-(Cyclohexylamino)-2-Oxo-1-(Pyrimidin-5-yl)Ethyl)Acetamide] | 620 nM
CC(C)(C)c1ccc(N(C(=O)CCl)C(C(=O)NC2CCCCC2)c2ccnnc2)cc1 (stereo not drawn) [INSCoV-537, N-(4-(Tert-Butyl)Phenyl)-2-Chloro-N-(2-(Cyclohexylamino)-2-Oxo-1-(Pyridazin-4-yl)Ethyl)Acetamide] | 420 nM
O=C(NC1CCC(F)(F)CC1)C(c1ccnnc1)N(C(=O)CCl)c1ccc(-c2cnco2)cc1 (stereo not drawn) [INSCoV-537I, 2-Chloro-N-(2-((4,4-Difluorocyclohexyl)Amino)-2-Oxo-1-(Pyridazin-4-yl)Ethyl)-N-(4-(Oxazol-5-yl)Phenyl)Acetamide] | 270 nM
O=C(NC1CCC(F)(F)CC1)C(c1ccnnc1)N(C(=O)CCl)c1ccc(-c2ccno2)cc1 (stereo not drawn) [INSCoV-537K, 2-Chloro-N-(2-((4,4-Difluorocyclohexyl)Amino)-2-Oxo-1-(Pyridazin-4-yl)Ethyl)-N-(4-(Isoxazol-5-yl)Phenyl)Acetamide] | 360 nM
CC(C)(C)c1ccc(N(C(=O)CCl)C(C(=O)NC2CCCCC2)c2cnccn2)cc1 (stereo not drawn) [INSCoV-538, N-(4-(Tert-Butyl)Phenyl)-2-Chloro-N-(2-(Cyclohexylamino)-2-Oxo-1-(Pyrazin-2-yl)Ethyl)Acetamide] | 280 nM
CC(C)(C)c1ccc(N(C(=O)CCl)[C@@](C)(C(=O)NC2CCCCC2)c2cccnc2)cc1 [INSCoV-538A(1)] | 230 nM
CC(C)(C)c1ccc(N(C(=O)CCl)[C@](C)(C(=O)NC2CCCCC2)c2cccnc2)cc1 [INSCoV-538A(2)] | 9600 nM
CC(C)(C)c1ccc(N(C(=O)CCl)C(C)(C(=O)NC2CCCCC2)c2cccnc2)cc1 (stereo not drawn) [INSCoV-538A] | 900 nM
CC(C)(C)c1ccc(N(C(=O)CCl)C(C(=O)NC2CCCCC2)c2cncc(C#N)c2)cc1 (stereo not drawn) [INSCoV-539, N-(4-(Tert-Butyl)Phenyl)-2-Chloro-N-(1-(5-Cyanopyridin-3-yl)-2-(Cyclohexylamino)-2-Oxoethyl)Acetamide] | 800 nM
CC(C)(C)c1ccc(N(C(=O)CCl)C(C(=O)NC2CCCCC2)c2c[nH]c3ncccc23)cc1 (stereo not drawn) [INSCoV-549] | 2490 nM
O=C(NC1CCCCC1)C(c1cccnc1)N(CCc1cccc(F)c1)C(=O)CCl (stereo not drawn) [INSCoV-558, 2-Chloro-N-(2-(Cyclohexylamino)-2-Oxo-1-(Pyridin-3-yl)Ethyl)-N-(3-Fluorophenethyl)Acetamide] | 330 nM
O=C(NC1CCS(=O)(=O)CC1)C(c1cncnc1)N(CCc1cccc(F)c1)C(=O)CCl (stereo not drawn) [INSCoV-558A, 2-Chloro-N-(2-((1,1-Dioxidotetrahydro-2H-Thiopyran-4-yl)Amino)-2-Oxo-1-(Pyrimidin-5-yl)Ethyl)-N-(3-Fluorophenethyl)Acetamide] | 470 nM
O=C(NC1CCCCC1)C(c1cccnc1)N(CCc1ccc(F)cc1)C(=O)CCl (stereo not drawn) [INSCoV-559, 2-Chloro-N-(2-(Cyclohexylamino)-2-Oxo-1-(Pyridin-3-yl)Ethyl)-N-(4-Fluorophenethyl)Acetamide] | 1080 nM
